The record followed here is patent US20240293318A1, “CLEAVABLE LINKER-CONTAINING IONIZABLE LIPIDS AND LIPID CARRIERS FOR THERAPEUTIC COMPOSITIONS” (Flagship Pioneering Innovations VII, LLC, priority 2023, published 2024).

A word on the pKa: it is the pH at which an ionisable group is half protonated.

Molecules are shown by their SMILES.

Data set [1] is described as follows: Apparent pKa of LNPs (TNS assay). Type of data set: physicochemical. Conditions: LNP, hEPO mRNA, Lipid:Cholesterol:DSPC:PEG-2k 50:38.5:10:1.5, N:P 6. The source says:
(§1) Various lipid nanoparticle compositions comprising a nucleic acid payload are characterized by a variety of methods. For example, dynamic light scattering (DLS) is used to determine particle sizes (Wyatt Dynapro Platereader 111). In addition, instruments such as the Zetasizer Nano ZS (Malvern Instruments Ltd) are used to measure multiple physical properties of a lipid nanoparticle composition, such as particle size, polydispersity index (PDI), and zeta potential. Fluorescence-based assays are used to determine the efficiencies of nucleic acid encapsulation in the lipid nanoparticles. Fluorescence-based assays are used to determine the “apparent pKa” of the lipid nanoparticles. Both fluorescence assays are evaluated on a Varioskanlux plate reader (ThermoScientific).
The apparent pKa of lipid nanoparticle composition is measured using a 6-(p-Toluidino)-2-naphthalenesulfonic acid (TNS) assay. Briefly, lipid nanoparticles (10 uL of approximately 0.5 mg mRNA/mL) and TNS probe (40 uL of 1 mM stock) are added to 750 uL of TNS buffer (25 mM citric acid, 20 mM sodium phosphate, 150 mM NaCl, and 20 mM ammonium acetate), at a pH ranging from 2 to 10. 20 uL of each sample are added to 80 uL of buffer at each pH in a 96-well plate. The plate is incubated for 10 minutes, and the fluorescence signal is measured by means of a spectrofluorometer (Varioskanlux, ThermoScientific) with excitation/emission settings of λex=321 nm, and λem=445 nm. The apparent pKa of the nanoparticle composition is determined by deriving the pH at which 50% of the pH 2 fluorescent signal is present. All datapoints are normalized to the fluorescent signal at pH 2.

Data set [2] can be described thus: Zeta potential assay of LNPs. Type of data set: physicochemical. The conditions noted are these: LNP, hEPO mRNA, Lipid:Cholesterol:DSPC:PEG-2k 50:38.5:10:1.5, N:P 6.
Description: as §1
A Zetasizer Nano ZS (Malvern Instruments Ltd) is used to determine the zeta potential of the nanoparticle compositions. Briefly, a 5 uL aliquot of an approximately 0.5 mg mRNA/mL sample is diluted into 800 uL 0.1×PBS. This sample is then transferred to a disposable conducting cuvette and the zeta potential is measured.

Data set [3] is described as follows: LNP size and polydispersity index by dynamic light scattering (DLS). Type of data set: physicochemical. The conditions noted are these: hEPO mRNA, Lipid:Cholesterol:DSPC:PEG-2k 50:38.5:10:1.5, N:P 6.
Description: as §1
After formulation and processing of the lipid nanoparticle compositions, the Z-average size of lipid nanoparticle composition are assayed by dynamic light scattering (DLS) (e.g., using a Wyatt Dynapro Platereader III or Malvern Zetasizer ZS). Briefly, an aliquot of 2 uL of the processed nanoparticle composition mixture (at an RNA concentration of approximately 0.5 mg/mL) is diluted into 50 uL phosphate buffered saline (0.1×PBS) and loaded into a 384 well plate. The sample is then analyzed to determine nanoparticle size.
(§2) LNPs were characterized by dynamic light scattering (DLS) measurement for measuring its hydrodynamic radius and polydispersity index (PDI). Encapsulation efficiency (EE %) and total RNA concentration were quantitated using a fluorescence based Ribogreen assay.

Data set [4] deals with C57BL/6 female mice. The data set is described as follows: In vivo hEPO expression of hEPO mRNA LNPs, serum ELISA. The conditions noted are these: LNP 50:38.5:10:1.5, N:P 6, 0.2 mg/kg hEPO mRNA, tail vein injection, blood serum 6 h post-administration. As for the experimental part:
In this example, messenger RNA molecules encoding hEPO proteins were formulated in lipid nanoparticles for delivery in vivo. The lipid nanoparticle (LNP) formulations comprised of a lipid composition of ionizable lipid: helper lipid: cholesterol. DMG-PEG2k at 50:10:38.5:1.5 mol %. The lipid mixture in ethanol was mixed with hEPO mRNA in RNA acidifying buffer (10 mM citrate, pH 4) at an ionizable-lipid-nitrogen-to-RNA-phosphate ratio (N:P) of 6 using a microfluidic device (Precision NanoSystems, Inc.) at a combined flow rate of 10 mL/min (7.5 mL/min for aqueous buffer, RNA and 2.5 mL/min for ethanol, lipid mix). The resulting particles were neutralized by buffer exchange into Dulbecco's phosphate buffer solution via PD-10 desalting column. The neutralized particles were concentrated using 100 kDa AMICON® Ultra centrifugal filters and sterile filtered using 0.2 um syringe filters. Samples were then characterized and diluted as needed (3 replicates).
The in vivo studies were performed in C57BL/6 female mice at 6 to 8 weeks weighing in at approximately 20 g. The LNPs formulated with different ionizable lipids at 0.2 mg/kg of hEPO mRNA were administered by tail vein injection and animals were euthanized at 6 h post-administration for blood serum sample collection. The hEPO levels from the samples were analyzed and cross-compared by enzyme-linked immunoassay (ELISA) according to manufacturer's protocol. The hEPO expression levels for each of the LNPs was compared to a control LNP comprising SM102 (DC Chemicals Cat. No. DC52025). (FIG. 1).
On the technique in general: ELISA stands for enzyme-linked immunosorbent assay.

Data set [5] can be described thus: Encapsulation efficiency, fluorescence based Ribogreen assay. The format is physicochemical. The conditions noted are these: LNP, hEPO mRNA, Lipid:Cholesterol:DSPC:PEG-2k 50:38.5:10:1.5, N:P 6. As for the experimental part:
For lipid nanoparticle formulations containing an RNA, a QUANTIT™ RIBOGREEN® RNA assay (Invitrogen Corporation) is used to evaluate the encapsulation of RNA within the lipid nanoparticle formulation.
The samples are diluted to ˜10 ug/ml in TE buffer. In a 96 well plate, 50 ul of the diluted sample is added to 50 uL TE buffer in duplicates and 20 uL of diluted sample is added to 80 uL Triton X buffer (2% triton in TE buffer) in duplicates. The plate is incubated for 10 minutes at room temperature. Next, RIBOGREEN® is diluted 1:200 in TE BUFFER, and 100 uL is added to each sample well. The fluorescence intensity is measured using a fluorescence plate reader (e.g., Varioskanlux, ThermoScientific) at an excitation wavelength of about 480 nm and an emission wavelength of about 520 nm. The encapsulation efficiency can be determined by using the percentage ratio of non-encapsulated RNA (TE sample) over the total RNA (TX sample), then subtracting from 100 to find the percentage of encapsulated RNA amount.
as §2

Take `CCCCCCCCCCCNP(=O)(OCC)OCCCCCN(CCO)CCCCCCCOP(=O)(NCCCCCCCCC)OCCCCCCCCC` (stereo not drawn) [Lipid 12]: the pKa in data set [1] is 8.3. For the same molecule, in data set [2], the Zeta is given as 3.5 mV. For the same molecule, in data set [3], the PDI stood at 0.316 and the Size was determined as 87.6 nm. The molecule also showed a hEPO in data set [4] of 0.00 ng/mL. In data set [5], the EE is 99.3%.
`CCCCCCCCCCCOC(=O)CCN(CCO)CCCCCCCC(=O)OC(CCCCCCCC)CCCCCCCC` [Lipid 4]: in data set [1], the pKa worked out at 5.1. The Zeta in data set [2] is reported as −9.3 mV. Also, in data set [3], the PDI is 0.103 and the Size is given as 56.2 nm. The hEPO in data set [4] came out at 0.00 ng/mL. Moreover, the EE in data set [5] is recorded as 97.5%.
Consider `CCCCCCCCC(CC)OC(=O)CCCCCCCN(CCCCCCCC(=O)OC(CCCCCCCC)CCCCCCCC)CCCn1nc(N)cc1N` (stereo not drawn) [Lipid 18], for which, in data set [1], the pKa was found to be 6.5. In addition, in data set [2], the Zeta is listed as −12.8 mV. For the same molecule, in data set [3], the PDI was 0.079 and the Size is reported as 67.2 nm. Moreover, the hEPO in data set [4] is on record as 386.98 ng/mL. This molecule had an EE in data set [5] of 98.9%.
In the case of `CCCCCCCCCCCCCOC(=O)CCN(CCO)CCCCCCCC(=O)OC(CCCCCCCC)CCCCCCCC` [Lipid 2], in data set [1], the pKa is on record as 5.1. This molecule showed a Zeta in data set [2] of 0.1 mV. In data set [3], this molecule gave a PDI of 0.399 and a Size of 68.8 nm. In addition, the hEPO in data set [4] was determined as 0.00 ng/mL. For the same molecule, the EE in data set [5] worked out at 97.9%.
With `CCCCCCCCCCOP(=O)(NCCCCCN(CCO)CCCCCCCC(=O)OC(CCCCCCCC)CCCCCCCC)OCC` (stereo not drawn) [Lipid 10], the pKa in data set [1] is given as 7.2. Further, in data set [2], the Zeta is 0.8 mV. In data set [3], this molecule yielded a PDI of 0.064 and a Size of 85.6 nm. Besides, the hEPO in data set [4] worked out at 90.05 ng/mL. The EE in data set [5] turned out to be 99.6%.
For the molecule `CCCCCCCCCCCOC(=O)CCCCCN(CCO)CCCCCCCC(=O)OC(CCCCCCCC)CCCCCCCC` [SM-102, heptadecan-9-yl 8-((2-hydroxyethyl)(6-oxo-6-(undecyloxy)hexyl)amino)octanoate, reference compound], in data set [1], the pKa is recorded as 7. The Zeta in data set [2] was −3.1 mV. In data set [3], this molecule gave a PDI of 0.106 and a Size of 78.70 nm. In data set [4], this molecule had a hEPO of 2457.05 ng/mL. Moreover, the EE in data set [5] is on record as 96.7%.
